Results reported in ChEMBL document CHEMBL4342507, “Targeting YAP Degradation by a Novel 1,2,4-Oxadiazole Derivative via Restoration of the Function of the Hippo Pathway” (ACS Med Chem Lett, 2020).
Calls of active or inactive are those of the source. No cut-off for these calls is given here.

Assays:
[1] = molecular target: T1, Serine/threonine-protein kinase LATS1 (Homo sapiens) (UniProt O95835); assay: Activation of LATS1 in triple-negative human SUM159 cells assessed as effect on YAP mRNA level at 0.25 to 1 uM measured after 12 hrs by Trizol reagent based RT-PCR analysis
T1 sequence (whole entry): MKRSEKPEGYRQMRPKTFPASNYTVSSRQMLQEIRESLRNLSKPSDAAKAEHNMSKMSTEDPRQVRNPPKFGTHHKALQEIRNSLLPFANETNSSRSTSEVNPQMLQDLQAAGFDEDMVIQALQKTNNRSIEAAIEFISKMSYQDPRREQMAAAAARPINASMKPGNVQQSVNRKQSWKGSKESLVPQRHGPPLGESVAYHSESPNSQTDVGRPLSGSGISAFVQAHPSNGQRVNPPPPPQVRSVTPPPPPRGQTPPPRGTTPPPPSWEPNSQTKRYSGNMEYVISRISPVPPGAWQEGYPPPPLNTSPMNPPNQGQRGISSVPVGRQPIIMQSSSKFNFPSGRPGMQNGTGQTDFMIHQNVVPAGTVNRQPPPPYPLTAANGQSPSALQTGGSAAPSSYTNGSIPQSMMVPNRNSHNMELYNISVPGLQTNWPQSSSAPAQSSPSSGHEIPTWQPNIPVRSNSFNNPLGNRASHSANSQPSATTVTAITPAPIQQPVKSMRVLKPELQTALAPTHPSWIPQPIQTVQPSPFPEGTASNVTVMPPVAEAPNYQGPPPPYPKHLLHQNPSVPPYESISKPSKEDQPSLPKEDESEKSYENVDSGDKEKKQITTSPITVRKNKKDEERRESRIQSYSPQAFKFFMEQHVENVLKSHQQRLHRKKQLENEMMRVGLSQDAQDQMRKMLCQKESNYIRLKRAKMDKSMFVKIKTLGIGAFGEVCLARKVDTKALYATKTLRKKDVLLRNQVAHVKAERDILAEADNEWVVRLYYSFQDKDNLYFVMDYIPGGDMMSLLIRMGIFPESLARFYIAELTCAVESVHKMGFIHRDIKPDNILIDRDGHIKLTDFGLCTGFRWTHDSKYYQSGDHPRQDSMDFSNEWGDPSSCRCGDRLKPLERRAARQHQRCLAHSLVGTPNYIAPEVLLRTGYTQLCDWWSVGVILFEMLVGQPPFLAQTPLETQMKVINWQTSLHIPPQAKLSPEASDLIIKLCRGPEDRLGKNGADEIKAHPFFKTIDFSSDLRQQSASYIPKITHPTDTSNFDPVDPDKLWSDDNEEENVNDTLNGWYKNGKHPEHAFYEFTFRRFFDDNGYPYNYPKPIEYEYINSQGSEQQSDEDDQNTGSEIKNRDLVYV

[2] = system: PC-9; assay: Cytotoxicity against human PC9 cells assessed as reduction in cell viability measured after 72 hrs by MTT assay; assay type: functional, cell-based
[3] = system: SUM-159-PT; assay: Cytotoxicity against human SUM159 cells assessed as reduction in cell viability at 0.2 to 1.2 uM by MTT assay; assay type: functional, cell-based; conditions: TDE = time-dependent effect
[4] = system: PC-3; assay: Cytotoxicity against human PC3 cells assessed as reduction in cell viability at 0.2 to 1.2 uM by MTT assay; assay type: functional, cell-based; conditions: TDE = time-dependent effect
[5] = system: PC-9; assay: Cytotoxicity against human PC9 cells assessed as reduction in cell viability at 0.2 to 1.2 uM by MTT assay; assay type: functional, cell-based; conditions: TDE = time-dependent effect
[6] = molecular target: T1, Serine/threonine-protein kinase LATS1 (Homo sapiens); assay: Activation of LATS1 in human […] cells assessed as increase in YAP phosphorylation at Ser397 at 0.25 to 1.5 uM measured after 12 to 24 hrs by immunoblotting analysis; assay type: cell-based
[7] = molecular target: T1, Serine/threonine-protein kinase LATS1 (Homo sapiens); assay: Activation of LATS1 in human PC9 cells assessed as increase in YAP phosphorylation at Ser397 at 0.25 to 1.5 uM measured after 12 to 24 hrs by immunoblotting analysis; assay type: cell-based
[8] = molecular target: T1, Serine/threonine-protein kinase LATS1 (Homo sapiens); assay: Activation of LATS1 in human MDA-MB-231 cells assessed as increase in YAP phosphorylation at Ser397 at 0.25 to 1.5 uM measured after 24 to 48 hrs by immunoblotting analysis; assay type: cell-based
[9] = molecular target: T1, Serine/threonine-protein kinase LATS1 (Homo sapiens); assay: Activation of LATS1 in human PC9 cells assessed as increase in YAP phosphorylation at Ser397 at 0.25 to 1.5 uM measured after 24 to 48 hrs by immunoblotting analysis; assay type: cell-based
[10] = system: SUM-159-PT; assay: Downregulation of TAZ protein expression in human SUM159 cells at 0.25 to 1.5 uM measured after 12 to 24 hrs by immunoblotting analysis; assay type: functional, cell-based
[11] = system: PC-9; assay: Downregulation of TAZ protein expression in human PC9 cells at 0.25 to 1.5 uM measured after 12 to 24 hrs by immunoblotting analysis; assay type: functional, cell-based
[12] = molecular target: T1, Serine/threonine-protein kinase LATS1 (Homo sapiens); assay: Activation of LATS1 in human MDA-MB-231 cells assessed as increase in phosphorylation at Ser909 residue measured after 24 hrs by Western blot analysis; assay type: cell-based
[13] = molecular target: T1, Serine/threonine-protein kinase LATS1 (Homo sapiens); assay: Activation of LATS1 in human MDA-MB-231 cells assessed as increase in phosphorylation at Thr1079 residue measured after 24 hrs by Western blot analysis; assay type: cell-based
[14] = molecular target: T1, Serine/threonine-protein kinase LATS1 (Homo sapiens); assay: Activation of LATS1 in human PC3 cells assessed as increase in phosphorylation at Ser909 residue measured after 24 hrs by Western blot analysis; assay type: cell-based
[15] = system: SUM-159-PT; assay: Effect on MST2 expression in human SUM159 cells at 0.25 to 1.5 uM measured after 12 hrs by Western blot analysis; assay type: functional, cell-based
[16] = system: MDA-MB-231; assay: Effect on MST2 expression in human MDA-MB-231 cells at 0.25 to 1.5 uM measured after 24 hrs by Western blot analysis; assay type: functional, cell-based
[17] = system: MDA-MB-231; assay: Activation of MOB in human MDA-MB-231 cells assessed as phosphorylation at Thr35 residue at 0.25 to 1.25 uM measured after 24 hrs by Western blot analysis; assay type: cell-based
[18] = Acute toxicity in athymic Nude-Foxn1nu BALB/c mouse xenografted with human MDA-MB-231 cells assessed as effect on serum ALT level at 200 mg/kg, po administered once daily via gavage for 14 days; assay type: organism-based; conditions: in vivo, 336 h
[19] = Acute toxicity in athymic Nude-Foxn1nu BALB/c mouse xenografted with human MDA-MB-231 cells assessed as effect on serum albumin level at 200 mg/kg, po administered once daily via gavage for 14 days; assay type: organism-based; conditions: in vivo, 336 h
[20] = Acute toxicity in athymic Nude-Foxn1nu BALB/c mouse xenografted with human MDA-MB-231 cells assessed as effect on serum total bilirubin level at 200 mg/kg, po administered once daily via gavage for 14 days; assay type: organism-based; conditions: in vivo, 336 h
[21] = Acute toxicity in athymic Nude-Foxn1nu BALB/c mouse xenografted with human MDA-MB-231 cells assessed as effect on blood urea nitrogen level at 200 mg/kg, po administered once daily via gavage for 14 days; assay type: organism-based; conditions: in vivo, 336 h
[22] = system: SUM-159-PT; assay: Cytostatic activity against human SUM159 cells assessed as cell viability at concentration of greater than IC50 measured up to 72 hrs by MTT assay; assay type: functional, cell-based
[23] = molecular target: T1, Serine/threonine-protein kinase LATS1 (Homo sapiens); assay: Activation of LATS1 in human PC3 cells assessed as induction of YAP degradation by measuring suppression of YAP protein expression at 0.25 to 1.5 uM measured after 12 to 24 hrs by immunoblotting analysis; assay type: cell-based

CC(=O)Nc1ccc(NC(=O)Nc2cccc(-c3nc(-c4ccc(NC(=O)c5cccnc5)cc4Cl)no3)c2)cc1C(F)(F)F
Activity [1]: inactive | Activity [2]: Dose-dependent effect | IC50 ([2]; PC-9, 72 h): 400 to 800 nM | Activity [3]: Tde | Activity [4]: Tde | Activity [5]: Tde | Activity [6]: Active | Activity [7]: Active | Activity [8]: inactive | Activity [9]: inactive | inhibition [10]: Active | inhibition [11]: Active | Activity [12]: Dose-dependent effect | Activity [13]: Dose-dependent effect | Activity [14]: Dose-dependent effect | Activity [15]: inactive | Activity [16]: inactive | Activity [17]: Active | Activity [18]: Non-Toxic | Activity [19]: Non-Toxic | Activity [20]: Non-Toxic | Activity [21]: Non-Toxic | Activity [22]: Active | Activity [23]: Active
